Measurements published in patent US20200171030A1, “DUAL INHIBITORS OF ALK5 AND P38A MAP KINASE” (INTEGRAL BIOSCIENCES PRIVATE LIMITED, priority 2018, published 2020).
Counter-ions that a name gives are not always drawn. Like-named read-outs stand apart in the source and are kept apart here.

Experiments:
TGFBR1 (ALK5) = target: T1, TGFBR1 (ALK5) (Homo sapiens, UniProt P36897); test: ALK5 kinase assay (LanthaScreen Terbium labeled TR-FRET); assay type: biochemical
T1 sequence (P36897 34-503): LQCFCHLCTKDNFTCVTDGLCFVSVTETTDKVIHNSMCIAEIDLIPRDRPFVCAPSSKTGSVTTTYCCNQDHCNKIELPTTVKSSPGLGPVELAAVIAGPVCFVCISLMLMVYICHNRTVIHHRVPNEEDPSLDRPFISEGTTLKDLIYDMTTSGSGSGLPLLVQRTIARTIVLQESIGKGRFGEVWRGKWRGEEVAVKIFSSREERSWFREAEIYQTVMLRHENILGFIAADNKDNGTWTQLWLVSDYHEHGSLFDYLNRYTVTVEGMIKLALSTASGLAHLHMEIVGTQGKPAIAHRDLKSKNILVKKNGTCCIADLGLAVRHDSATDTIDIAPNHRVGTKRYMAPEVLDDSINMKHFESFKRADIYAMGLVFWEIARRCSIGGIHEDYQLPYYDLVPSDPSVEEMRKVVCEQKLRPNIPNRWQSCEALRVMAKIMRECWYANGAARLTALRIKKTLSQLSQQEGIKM
Description: ALK5 Kinase Assay for IC50 Determination:
IC50 values of compounds against TGFβ kinase was determined by LanthaScreen™ Terbium Labeled TR-FRET assay. Kinase assays were performed in IX kinase buffer (# PV6135, Invitrogen, Life Technologies Grand Island, N.Y.) where total reaction volume was 10 μL in low-volume 384-well plates (#4511,Corning). Serially diluted compounds (3-fold) were incubated with TGFβ kinase (6 nM) for 10 min, following which a mixture of ATP (10 μM) (# A1852, Sigma, St-Louis, Mo.) and fluorescent-PolyGT substrate (200 nM) (# PV3610, Invitrogen, Life Technologies Grand Island, N.Y.) was added and incubated in dark at room temperature for 1 h. After 1 h, 10 μL stop solution containing Terbium labeled antibody (4 nM) (# PV3529, Invitrogen, Life Technologies Grand Island, N.Y.) and EDTA (# E5134, Sigma, St-Louis, Mo.) (20 mM) in TR-FRET dilution buffer (# PV3574, Invitrogen, Life Technologies Grand Island, N.Y.) was added. Readings were taken in a Synergy Neo Plate reader (BioTek, Winooski) at single excitation of 340 nm and Dual emission at 495 nm and 520 nm respectively.
The % activity of test samples was calculated as (Sample−Min)×100/(Max−Min). [Max: DMSO control, complete reaction with enzyme with DMSO and Min: No enzyme with DMSO]. Percent inhibition (100-% activity) was fitted to the “four-parameter logistic model” in XLfit for determination of IC50 values.

MAPK14/p38α kinase = target: T2, MAPK14/p38α kinase (Homo sapiens, UniProt Q16539); test: MAPK14/p38α kinase assay (LanthaScreen TR-FRET); assay type: biochemical
T2 construct: purchased ThermoFisher PV3304
Description: MAPK14/p38α Kinase Assay for IC50 Determination:
IC50 values of compounds against MAPK14/P38α kinase were determined by Lanthascreen based TR-FRET assay. Kinase reactions were performed in a 10 μL volume in low-volume 384-well plates. The concentration of substrate was maintained at 400 nM in the assay, and the kinase reaction buffer (1×; Cat # PV3189, ThermoFisher) consisted of 50 mM HEPES pH 7.5, 0.01% BRIJ-35, 10 mM MgCl2, and 1 mM EGTA. Serially diluted compounds (3-fold) in DMSO (0.5% in final reaction) were incubated with cocktail of MAPK14/p38α kinase (20 ng/ml; Cat # PV3304, ThermoFisher), Substrate GFP-ATF2 (19-96), (0.4 μM; Cat # PV4445, ThermoFisher), ATP (90 μM; Cat # PV3227, ThermoFisher) and buffer. Kinase reactions were allowed to proceed for 1 hour at room temperature before EDTA (10 mM; Cat # P2825, ThermoFisher) and LanthaScreen™ Tb-antipATF2 (pThr71) Antibody (2 nM; Cat # PV4451, ThermoFisher) in TR-FRET dilution buffer (IX; Cat # PV3574, ThermoFisher) were added. The plate was allowed to incubate at room temperature for 30 minutes before being read on a BMG Pherastar plate reader using the LanthaScreen™ filter block for LanthaScreen™ TR-FRET.
The resulting TR-FRET emission ratio was plotted against the concentration of inhibitor, and the data was fit to a sigmoidal dose-response curve with a variable slope. The IC50 for the inhibitor was calculated from the curve.

Panc-1 = test: Cell viability assay (resazurin, 96 hr) in Panc-1; assay type: cell-based; conditions: Homo sapiens; Panc-1 pancreatic cell line, 96 hr exposure; read-out: Panc-1_Cell Viability_IC50
Description: (§1) Cell Viability Assay in MIA PaCa-2 and Panc-1
(§2) MIA PaCa-2 (ATCC® CRL-1420™) and Panc-1 (CRL-1469™), both pancreatic cell lines were seeded in their respective medium (DMEM, Cat #10569044 with 10% FBS, Cat #16000044; Gibco for Panc-1 and an additional 2.5% Horse Serum, Cat #16050122; Gibco for MIA PaCa-2) at a cell count of 3000 cells per 100 μl per well in a 96 well edge plate (167425; ThermoFisher). Cells were allowed to grow at 37° C. for 24 hr in 5% CO2 (culture conditions) in a Nuaire incubator (humidified). Serially diluted compounds (100 μl) were added to the culture plate 24 hr later and the cultures (MIA PaCa-2 and Panc-1) were further incubated in culture conditions for 96 hr. Experiment was terminated at the completion of 96 hr exposure to the drug by replacing the medium with 100 μl of 1 mM of resazurin (R7017; Sigma) prepared in culture medium and the plates were further incubated in culture conditions for 4 hr. Fluorescence was then measured using a multimodal plate reader (Biotek Synergy Neo) at an excitation wavelength of 535 nm and emission wavelength of 590 nm to obtain relative fluorescence units. Data analysis was done by subtracting the background fluorescence (only medium blank) value from each reading and then normalizing with the vehicle control (DMSO treated cells) to obtain percent survival/proliferation. Percent survival at different doses was used to calculate IC50 by fitting the curve to the “four-parameter variable slope logistic model” using Prism Graph Pad.

MIA PaCa-2 = test: Cell viability assay (resazurin, 96 hr) in MIA PaCa-2; assay type: cell-based; conditions: Homo sapiens; MIA PaCa-2 pancreatic cell line, 96 hr exposure; read-out: MiaPaCa-2_Cell Viability_IC50
Description: as §1, §2

T2 sequence (Q16539 whole entry): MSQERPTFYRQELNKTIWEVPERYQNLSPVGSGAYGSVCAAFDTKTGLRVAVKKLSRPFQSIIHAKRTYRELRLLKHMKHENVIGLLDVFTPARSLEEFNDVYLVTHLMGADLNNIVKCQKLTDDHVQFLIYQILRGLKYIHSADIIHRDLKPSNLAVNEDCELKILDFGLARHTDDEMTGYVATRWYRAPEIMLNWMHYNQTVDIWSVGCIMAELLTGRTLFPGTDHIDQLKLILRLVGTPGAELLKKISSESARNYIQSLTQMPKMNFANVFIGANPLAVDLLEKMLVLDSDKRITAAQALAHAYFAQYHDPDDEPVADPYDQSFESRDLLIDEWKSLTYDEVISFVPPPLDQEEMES

Structure (SMILES) | IC50 (TGFBR1 (ALK5); Table 3, read-out: IC50 (ALK5)) | IC50 (MAPK14/p38α kinase; Table 3, read-out: IC50 (P38 alpha)) | IC50 (Panc-1) | IC50 (MIA PaCa-2) | IC50 (TGFBR1 (ALK5); Table 4, read-out: ALK5 IC50) | inhibition at 0.1 µM (MAPK14/p38α kinase; 100 nM concentration of compound, Table 4, read-out: Enzyme Activity MAPK14 (p38alpha) % Inh at 100 nM)
CC(C)c1cnc(-c2ccc(F)cc2)cc1Nc1ccnc2[nH]cc(C(=O)C(N)=O)c12 [Compound No. 19, 2-(4-((2-(4-fluorophenyl)-5-isopropylpyridin-4-yl)amino)-1H-pyrrolo[2,3-b]pyridin-3-yl)-2-oxoacetamide hydrochloride] | 0.278 µM | 1.76 µM | 23.2 µM | 15.5 µM | – | –
CC(C)c1cnc(-c2ccc(F)cc2)nc1Nc1cccc2[nH]cc(C(=O)C(N)=O)c12 [Compound No. 28, 2-(4-(2-(4-fluorophenyl)-5-isopropylpyrimidin-4-ylamino)-1H-indol-3-yl)-2-oxoacetamide hydrochloride] | – | – | > 30 µM | > 30 µM | > 5 µM | 21%
